This is an account of results in ChEMBL document CHEMBL3407365, “Pachymodulin, a new functional formyl peptide receptor 2 peptidic ligand isolated from frog skin has Janus-like immunomodulatory capacities” (J Med Chem, 2015).

The source made the active and inactive calls. No cut-off for these calls is given here.

Data set [1] deals with Neutrophil. Kind of data set: Induction of […]-induced migration in human neutrophils preincubated at 10 uM after 45 mins by chemotaxis assay. Format: functional, cell-based.
Data set [2] concerns the target T1, N-formyl peptide receptor 2 (Homo sapiens) (UniProt P25090).
T1 sequence (whole entry): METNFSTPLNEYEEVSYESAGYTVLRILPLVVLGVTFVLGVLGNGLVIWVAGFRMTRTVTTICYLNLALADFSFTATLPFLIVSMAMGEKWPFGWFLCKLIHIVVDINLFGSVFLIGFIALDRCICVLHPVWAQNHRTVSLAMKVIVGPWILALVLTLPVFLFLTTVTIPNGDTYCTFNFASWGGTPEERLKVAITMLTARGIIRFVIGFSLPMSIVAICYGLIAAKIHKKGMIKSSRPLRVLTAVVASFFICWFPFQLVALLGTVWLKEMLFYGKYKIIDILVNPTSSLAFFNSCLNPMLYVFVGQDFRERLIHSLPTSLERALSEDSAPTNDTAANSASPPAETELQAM
Kind of data set: Induction of calcium release in human FPR2 receptor-expressed HEK cell at 10 uM measured after second challenge by cytosolic-free calcium assay. Format: functional, cell-based. Conditions: HEK293.

For data set [3], the target named is T1, N-formyl peptide receptor 2 (Homo sapiens). Kind of data set: Induction of calcium release in human FPR2 receptor-expressed HEK cell assessed as calcium release through Cav1.2 channel at 10 uM by cytosolic-free calcium assay in presence of 30 uM ATP. It is filed as functional, cell-based. To be noted: HEK293.
Data set [4] deals with Neutrophil. Kind of data set: Induction of ERK1/2-mediated directional migration in human neutrophils assessed as fluorescence of calcein at 10 uM after 45 mins by chemotaxis assay in presence of PD98059 MEK1/2 inhibitor. Format: functional, cell-based.
The test system of data set [5] is Neutrophil. Kind of data set: Induction of ERK1/2-mediated directional migration in human neutrophils assessed as fluorescence of calcein at 10 uM after 45 mins by chemotaxis assay in presence of SB202190 MAPK inhibitor. Format: functional, cell-based.
Data set [6] deals with Neutrophil. Kind of data set: Induction of ERK1/2-mediated directional migration in human neutrophils assessed as enzyme phosphorylation at 10 uM by chemotaxis assay. Format: functional, cell-based. To be noted: TDE = time-dependent effect.
Data set [7] concerns Neutrophil. Kind of data set: Induction of migration in human neutrophils at 10 uM after 45 mins by chemotaxis assay in presence of preincubation of 10 uM fMLP. It is filed as functional, cell-based.
In data set [8] the test system is Neutrophil. Kind of data set: Induction of migration in human neutrophils at 10 uM after 45 mins by chemotaxis assay in presence of preincubation of 0.1 uM fMLP. It is filed as functional, cell-based.
Data set [9] relates to Neutrophil. Kind of data set: Induction of migration in human neutrophils preincubated at 10 uM after 45 mins by chemotaxis assay in presence of 10 uM fMLP. It is filed as functional, cell-based.
Data set [10] has as its system Neutrophil. Kind of data set: Induction of migration in human neutrophils preincubated at 10 uM after 45 mins by chemotaxis assay in presence of 0.1 uM fMLP. It is filed as functional, cell-based.
Data set [11] has as its target T1, N-formyl peptide receptor 2 (Homo sapiens). Kind of data set: Binding affinity to human FPR2 receptor expressed in HEK cells assessed as heat release at 155 nmol by isothermal titration calorimetry. Conditions: HEK293. For orientation: Isothermal titration calorimetry measures the heat released or taken up as one component is titrated into another.
Data set [12] shares this target. Kind of data set: Induction of human FPR2 receptor-expressed HEK cell migration at 10 uM. To be noted: HEK293.
Data set [13] has as its target T2, Formyl peptide receptor-related sequence 1 (Mus musculus) (UniProt O08790).
T2 sequence (whole entry): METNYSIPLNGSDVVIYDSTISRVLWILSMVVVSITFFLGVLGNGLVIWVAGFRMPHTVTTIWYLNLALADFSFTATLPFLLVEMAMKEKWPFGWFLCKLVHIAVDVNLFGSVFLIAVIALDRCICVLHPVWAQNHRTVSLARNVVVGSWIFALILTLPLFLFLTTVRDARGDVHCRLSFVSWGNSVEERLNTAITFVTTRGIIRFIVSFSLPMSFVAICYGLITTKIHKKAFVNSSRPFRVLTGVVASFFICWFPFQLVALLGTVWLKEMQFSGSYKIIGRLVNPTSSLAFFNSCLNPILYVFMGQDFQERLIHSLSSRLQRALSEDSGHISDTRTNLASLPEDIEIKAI
Kind of data set: Induction of mouse FPR2 receptor-expressed HEK cell migration at 10 uM. Conditions: HEK293.

Data set [14] relates to HEK293. Kind of data set: Induction of HEK cell migration at 10 uM. It is filed as functional, cell-based. Conditions: Homo sapiens.
The target in data set [15] is T1, N-formyl peptide receptor 2 (Homo sapiens). Kind of data set: (§1) Induction of calcium release in human FPR2 receptor-expressed HEK cell by cytosolic-free calcium assay. Format: functional, cell-based. To be noted: HEK293.
In data set [16] the target is T3, N-formyl peptide receptor 2 (Homo sapiens, UniProt P25090).
T3 sequence (P25090 whole entry): T1 sequence (whole entry)
Described as §1. Format: functional, cell-based, HEK293.

The target of data set [17] is T2, Formyl peptide receptor-related sequence 1 (Mus musculus). Kind of data set: (§2) Induction of calcium release in mouse FPR2 receptor-expressed HEK cell by cytosolic-free calcium assay. It is filed as functional. To be noted: HEK293.
In data set [18] the target is T4, Formyl peptide receptor-related sequence 1 (Mus musculus, UniProt O08790).
T4 sequence (O08790 whole entry): T2 sequence (whole entry)
Described as §2. It is filed as functional, HEK293.

The subject of data set [19] is HEK293. Kind of data set: Induction of calcium release in HEK cell at 10 uM by cytosolic-free calcium assay. Format: functional, cell-based. Conditions: Homo sapiens.
In data set [20] the test system is Mus musculus. Kind of data set: Induction of leukocyte recruitment in C57BL/6 mouse assessed as increase in number of neutrophils in blood at 40 ug, ip tid relative to NaCl treated control. It is filed as functional, organism-based.
Data set [21] relates to Mus musculus. Kind of data set: Induction of leukocyte recruitment in C57BL/6 mouse assessed as increase in number of neutrophils in peritoneal cavity at 40 ug, ip tid relative to NaCl treated control. It is filed as functional, organism-based.
For data set [22], the system named is Mus musculus. Kind of data set: Induction of leukocyte recruitment in C57BL/6 mouse assessed as increase in number of monocytes in blood at 40 ug, ip tid relative to NaCl treated control. It is filed as functional, organism-based.
The test system of data set [23] is Mus musculus. Kind of data set: Induction of leukocyte recruitment in C57BL/6 mouse assessed as increase in number of monocytes in peritoneal cavity at 40 ug, ip tid relative to NaCl treated control. It is filed as functional, organism-based.
Data set [24] relates to Mus musculus. Kind of data set: Induction of leukocyte recruitment in C57BL/6 mouse assessed as increase in number of monocytes in blood at 40 ug, ip tid 4 hr before pretreated with 3% thioglycollate relative to NaCl treated control. It is filed as functional, organism-based.
The subject of data set [25] is Mus musculus. Kind of data set: Induction of leukocyte recruitment in C57BL/6 mouse assessed as increase in number of monocytes in peritoneal cavity at 40 ug, ip tid 4 hr before pretreated with 3% thioglycollate relative to NaCl treated control. Format: functional, organism-based.
Data set [26] has as its system Mus musculus. Kind of data set: Induction of leukocyte recruitment in C57BL/6 mouse assessed as increase in number of neutrophils in blood at 40 ug, ip tid 4 hr before pretreated with 3% thioglycollate relative to NaCl treated control. It is filed as functional, organism-based.
For data set [27], the system named is Mus musculus. Kind of data set: Induction of leukocyte recruitment in C57BL/6 mouse assessed as increase in number of neutrophils in peritoneal cavity at 40 ug, ip tid 4 hr before pretreated with 3% thioglycollate relative to NaCl treated control. Format: functional, organism-based.
The subject of data set [28] is Mus musculus. Kind of data set: Induction of leukocyte recruitment in C57BL/6 mouse assessed as increase in number of macrophages in blood at 40 ug, ip tid 4 hr before pretreated with 3% thioglycollate relative to NaCl treated control. It is filed as functional, organism-based.
The subject of data set [29] is Escherichia coli. Kind of data set: Antibacterial activity against Escherichia coli ATCC 11775. It is filed as functional.
The subject of data set [30] is Staphylococcus aureus. Kind of data set: Antibacterial activity against Staphylococcus aureus ATCC 25923. It is filed as functional.
A short description of data set [31]: Hemolytic activity in fresh rat erythrocytes assessed as optical density after 60 mins. Format: ADME, cell-based. Conditions: erythrocyte, 1 h.
Data set [32] concerns Escherichia coli. Kind of data set: Induction of membrane disruption in Escherichia coli assessed as bacterial leakage by measuring Gal-ONp hydrolysis. Format: organism-based.
Data set [33] has as its system Neutrophil. Kind of data set: Induction of ERK1/2-mediated directional migration in human neutrophils assessed as fluorescence of calcein at 10 uM after 45 mins by chemotaxis assay. Format: functional, cell-based.
The subject of data set [34] is Monocyte. Kind of data set: Induction of ERK1/2-mediated directional migration in human monocytes assessed as fluorescence of calcein at 10 uM after 45 mins by chemotaxis assay. Format: functional, cell-based.
The test system of data set [35] is T-cell. Kind of data set: Induction of ERK1/2-mediated directional migration in human T cell assessed as fluorescence of calcein at 10 uM after 45 mins by chemotaxis assay. Format: functional, cell-based.
Data set [36] has as its system Neutrophil. Kind of data set: Induction of ERK1/2-mediated directional migration in mouse neutrophils assessed as fluorescence of calcein at 10 uM after 45 mins by chemotaxis assay. It is filed as functional, cell-based.
For data set [37], the system named is Monocyte. Kind of data set: Induction of ERK1/2-mediated directional migration in mouse monocytes assessed as fluorescence of calcein at 10 uM after 45 mins by chemotaxis assay. Format: functional, cell-based.
Data set [38] has as its system Neutrophil. Kind of data set: Induction of ERK1/2-mediated directional migration in human neutrophils assessed as fluorescence of calcein at 10 uM after 45 mins by chemotaxis assay in presence of natural compound. Format: functional, cell-based.
Data set [39] deals with Monocyte. Kind of data set: Induction of ERK1/2-mediated directional migration in human monocytes assessed as fluorescence of calcein at 10 uM after 45 mins by chemotaxis assay in presence of natural compound. Format: functional, cell-based.
Data set [40] relates to T-cell. Kind of data set: Induction of ERK1/2-mediated directional migration in human T cell assessed as fluorescence of calcein at 10 uM after 45 mins by chemotaxis assay in presence of natural compound. It is filed as functional, cell-based.
In data set [41] the test system is Neutrophil. Kind of data set: Induction of ERK1/2-mediated directional migration in mouse neutrophils assessed as fluorescence of calcein at 10 uM after 45 mins by chemotaxis assay in presence of natural compound. Format: functional, cell-based.
Data set [42] concerns Monocyte. Kind of data set: Induction of ERK1/2-mediated directional migration in mouse monocytes assessed as fluorescence of calcein at 10 uM after 45 mins by chemotaxis assay in presence of natural compound. It is filed as functional, cell-based.
Data set [43] deals with Neutrophil. Kind of data set: Induction of ERK1/2-mediated directional migration in human neutrophils assessed as fluorescence of calcein at 10 uM after 45 mins by chemotaxis assay in presence of pertussis toxin. Format: functional, cell-based.
The test system of data set [44] is Mus musculus. Kind of data set: Induction of leukocyte recruitment in C57BL/6 mouse assessed as increase in number of macrophages in peritoneal cavity at 40 ug, ip tid 4 hr before pretreated with 3% thioglycollate relative to NaCl treated control. It is filed as functional, organism-based.

In the case of `CSCC[C@H](NC=O)C(=O)N[C@@H](CC(C)C)C(=O)N[C@@H](Cc1ccccc1)C(=O)O`, the outcome in [1] and in [2] was inactive. In addition, the result in data set [3] was Active.
For H-SSLSKL-OH, the result in [4], in data set [5], in [8], in data set [14], in [19] and in [2] was inactive. Moreover, the outcome in data set [24], in data set [25], in data set [26], in data set [27], in data set [28] and in data set [38] was inactive. For the same compound, the result in [39], in data set [40], in data set [41], in [42], in data set [43] and in data set [44] was inactive. Further, the Activity entry is “tde” in [6]; “Dose-dependent effect” in [15]; “Dose-dependent effect” in [17]; “Non-toxic” in [31]; “Non-toxic” in data set [32]. In addition, the result in [7], in [9], in [10], in data set [11], in [12] and in data set [13] was Active. In addition, the result in data set [3], in [20], in data set [21], in data set [22], in [23] and in [33] was Active. The result in [34], in [35], in [36] and in data set [37] was Active. Moreover, the EC50 (usually the concentration needed to bring the measured effect to its halfway point) is 7.5 µM in data set [16] and 9 µM in [18]. The MIC in data set [29] and in data set [30] was > 100 µM each time.
